Data on one molecule can be found in patent US20010051181A1, “NOVEL FORMULATIONS FOR THE TRANSDERMAL ADMINISTRATION OF ASIMADOLINE” (priority 1997, published 2001).

This data set can be described thus: in vitro skin flux of asimadoline through human cadaver epidermis. The data set is classed as in vitro ADME. The settings on record: representative range; depending on the drug form, permeation enhancer, and if an in-line adhesive is present. The method, then: Release of asimadoline from transdermal systems into aqueous medium was measured over 24 hours at 35° C. Each system had its exposed edges masked. The systems were then mounted on a Teflon® holder of a release rate rod using nylon mesh and nickel wire. A known volume of receptor solution (50 mM Na2PO4, pH 5.5) was then placed in a test tube and equilibrated at 35° C. The test tube was placed in a water bath and maintained at 35° C. The Teflon rod with attached system was then reciprocated within the test tube by attaching the rod to a motor which caused constant vertical mixing.
At given time intervals, the entire receptor solution was removed from the test tubes and replaced with an equal volume of fresh receptor solutions previously equilibrated at 35° C. The receptor solutions were stored in capped vials at 4° C. until assayed for asimadoline content by HPLC. From the drug concentration and the volume of the receptor solutions, the area of the system and the time interval, the release rate of the drug from the system was calculated as follows: (drug concentration×volume of receptor)/(area×time)=release rate (μg/cm^2 hr). […]
Transdermal systems set forth in Table 1 were prepared according to Example 1 and used to measure permeation through human cadaver skin. […] Asimadoline permeation through the epidermis was then measured according to the procedure set forth in Example 1. […]

Where a name gives a salt, the structure may show the parent alone.

For `CN(C(=O)C(c1ccccc1)c1ccccc1)[C@H](CN1CC[C@H](O)C1)c1ccccc1` [asimadoline hydrochloride, N-[(aS)-α-[[(3S)-3-Hydroxy-1-pyrrolidinyl]methyl]benzyl]-N-methyl-2,2-diphenylacetamide], the “in vitro skin flux through human skin” value is given as 0.2-10 mg/cm^2·hr.
